Measured values reported in US20140213575A1, “6H-Thieno[3,2-f][1,2,4]triazolo[4,3-a][1,4]diazepines” (BAYER INTELLECTUAL PROPERTY GMBH, priority 2011, published 2014).

Assays:
HeLa-MaTu cells = experiment: Cellular proliferation assay (alamarBlue) HeLa-MaTu; assay type: cell-based; conditions: 96 hours, read-out: Cervix HeLa-MaTu IC50
Protocol: (§1) In accordance with the invention, the ability of the substances to inhibit the proliferation of various cell lines was determined. Cell viability was determined by means of the alamarBlue® reagent (Invitrogen). […] After incubation overnight at 37° C., the fluorescence values were determined (CI values). […] Then the fluorescence values were determined (CO values).
(§2) The substances were investigated in the cell lines in Table 1, which for example represent the stated indications: […]

[1] = Plasma concentrations from in-vivo tests and PK parameters; design: AUC(0-tlast): unit not given here; conditions: mouse; for unbound exposure in comparison with comparative example V1: after single oral administration, by AUC(0-tlast),norm,u; for AUC(0-tlast),norm,u: AUCnorm multiplied by fu; for AUC(0-tlast),norm: dose-normalized; for tlast: last time point with measurable plasma concentration; for Plasma concentration: 50 mg/kg p.o.
Protocol: After thawing and shaking, the samples are centrifuged for 20 minutes at 4° C. and approx. 2000×g. An aliquot of the supernatant (approx. 25 μL) is measured by LCMS analysis. If high plasma or tissue levels are expected (>ULOQ, as a rule 5 μM) the precipitated samples are additionally diluted 1:100 with ACN/H2O (80/20, v/v)+internal standard and corresponding aliquots are measured by LCMS. For this, the test substance is added in 5-9 concentrations, corresponding to the determination range of the analytical method, to a control matrix (calibration samples), e.g. 0, 1, 10, 100, 1000, 5000 nM. For this, a portion of solid is weighed and is dissolved in DMSO (as a rule 1 mM stock solution). This stock solution is further diluted 1:10 with DMSO ([…]). Then 1:5 (v/v) ACN+internal standard (soln. A) is added to the calibration samples and processed further as with the plasma samples. The calibration series in solvent takes place similarly to the plasma calibration described. The test substance is in this case prepared in ACN/H2O (50/50, v/v) and then 1:5 (v/v) ACN+internal standard is added to the samples. This series serves for calibration of the diluted samples. The following PK parameters are calculated from these concentration-time profiles obtained: […]
AUC(0-tlast),norm multiplied by the free fraction (fu) of the species investigated.

B16F10 cells = experiment: Cellular proliferation assay (alamarBlue) B16F10; assay type: cell-based; conditions: Mus musculus, B16-F10, 96 hours, read-out: Melanoma B16F10 IC50
Protocol: as §1, §2

MOLP-8 cells = experiment: Cellular proliferation assay (alamarBlue) MOLP-8; assay type: cell-based; conditions: Homo sapiens, 120 hours, read-out: Multiple myeloma MOLP-8 IC50
Protocol: as §1, §2

VCaP cells = experiment: Cellular proliferation assay (alamarBlue) VCaP; assay type: cell-based; conditions: Homo sapiens, 168 hours, read-out: Prostate VCaP IC50
Protocol: as §1, §2

plasma proteins = experiment: Plasma protein binding by equilibrium dialysis; assay type: in vitro ADME, mouse; conditions: for fu: free fraction of the species investigated (mouse), as used in Table 6; for fraction unbound: mouse, plasma, free (unbound) fraction, equilibrium dialysis, read-out: Protein binding, given as % fu
Protocol: The binding of test substances to plasma proteins is determined by equilibrium dialysis by means of the Ht-dialysis apparatus (96-well) made of Teflon and a semipermeable membrane (regenerated cellulose, MWCO 12-14K). This separates 150 μl of each of a plasma side and a buffer side (50 mM phosphate buffer). The test substance is added in 2 concentrations (usually 3 and 0.3 μM) to the plasma side and binds to plasma proteins. The unbound fraction of the test substance passes through the membrane and is distributed on either side until equilibrium is established (after approx. 6-8 h at 37° C.). The substance concentration on the buffer side and the plasma side is determined by LC-MS analysis. For this, both sides are brought by dilution with buffer or plasma to the same matrix (10% plasma) and then precipitated with methanol. The free (unbound) fraction (fu) is calculated from the quotient of the buffer and plasma concentration. Stability tests and recovery tests are run concurrently as controls. In addition, the substance in buffer is dialysed against buffer, to check the nonspecific binding to apparatus and membrane and establishment of equilibrium. Because during incubation the osmotic pressure of the plasma proteins leads to dilution of the plasma (volume shift), this possible error is determined by weighing blank plasma samples and is included in the calculation of fu. Establishment of equilibrium and plasma stability should have a value not lower than 80% and the recovery should be at least 30%. A free fraction of <1% is regarded as high, between 1 and 10% as moderate and >10% as low plasma protein binding.

LAPC-4 cells = experiment: Cellular proliferation assay (alamarBlue) LAPC-4; assay type: cell-based; conditions: Homo sapiens, LAPC4, 168 hours, read-out: Prostate LAPC-4 IC50
Protocol: as §1, §2

MOLM-13 cells = experiment: Cellular proliferation assay (alamarBlue) MOLM-13; assay type: cell-based; conditions: Homo sapiens, 96 hours, read-out: Leukaemia MOLM-13 IC50
Protocol: as §1, §2

[2] = In-vivo tolerability in the mouse; design: species or system female NMRI nude mice; conditions: for MTD / MTD at 5 days: female, NMRI nude, mouse, in vivo, oral; for MTD: once daily, read-out: maximum tolerated treatment dose (MTD), single daily treatment; for MTD at 5 days: twice daily, after 5 days of treatment, read-out: maximum tolerated treatment dose (MTD), twice daily administration; for Drug-induced deaths (day): 3 animals per group; for tolerability at all doses tested: treatment once or twice daily
Protocol: The substances were formulated in NMP/PEG300 (1/9 V/V). They were administered orally, in an amount of 10 ml/kg, once or twice daily for a period of 5 to 7 days to female NMRI nude mice (6-8 weeks old; 3 animals per group). Body weight and mortality of the mice were monitored daily up to the end of the study. Toxicity was defined as follows: ≧10% substance-induced deaths or ≧20% weight loss.

MCF-7 cells = experiment: Cellular proliferation assay (alamarBlue) MCF-7; assay type: cell-based; conditions: Homo sapiens, MCF7, 96 hours, read-out: Breast MCF-7 IC50
Protocol: as §1, §2

[3] = oral 50 mg/kg, QD × 5, once daily
[4] = oral 50 mg/kg, QD × 5, twice daily
[5] = oral 100 mg/kg, QD × 5, once daily
[6] = oral 100 mg/kg, QD × 5, twice daily
[7] = oral 200 mg/kg, QD × 5, once daily

SMILES	IC50 (HeLa-MaTu cells) [nM]	unbound exposure in comparison with comparative example V1 [1]	IC50 (B16F10 cells) [nM]	IC50 (MOLP-8 cells) [nM]	IC50 (VCaP cells) [nM]	fu (plasma proteins) [%]	fraction unbound (plasma proteins)	IC50 (LAPC-4 cells) [nM]	IC50 (MOLM-13 cells) [nM]	MTD [2] [mg/kg]	MTD at 5 days [2] [mg/kg]	% maximum body weight change (day) [2, 3]	Remarks (tolerability) [2, 3]	Drug-induced deaths (day) [2, 3]	% maximum body weight change (day) [2, 4]	Remarks (tolerability) [2, 4]	Drug-induced deaths (day) [2, 4]	% maximum body weight change (day) [2, 5]	Remarks (tolerability) [2, 5]	Drug-induced deaths (day) [2, 5]	also measured
Cc1sc2c(c1C)C(c1ccc(Cl)cc1)=N[C@@H](CC(=O)N1C3CCC1CC(=O)C3)c1nnc(C)n1-2 [Example 1, 8-{2-[(S)-4-(4-Chlorophenyl)-2,3,9-trimethyl-6H-thieno[3,2-f][1,2,4]triazolo[4,3-a][1,4]diazepin-6-yl]acetyl}-8-azabicyclo[3.2.1]octan-3-one]	251	higher unbound exposure	97	70	39	12	0.12	54	91	≥ 200	≥ 100	+7 (6) %	tolerated	0/3	+5 (4) %	tolerated	0/3	+6 (6) %	tolerated	0/3	concentration at 1 h ([1]; in vivo, po, 100 mg/kg p.o., 1 h): 1470 ng/mL; AUC(0-tlast) ([1]; single oral dose 100 mg/kg): 4.9; AUC(0-tlast),norm,u ([1]; single oral dose 100 mg/kg): 0.006 kg·h/L; AUC(0-tlast),norm ([1]; single oral dose 100 mg/kg): 0.05 kg·h/L; tlast ([1]; single oral dose 100 mg/kg): 24 h; concentration at 3 h ([1]; plasma, po, 100 mg/kg p.o., 3 h): 836 ng/mL; concentration at 6 h ([1]; plasma, po, 100 mg/kg p.o., 6 h): 176 ng/mL; concentration at 24 h ([1]; plasma, po, 100 mg/kg p.o., 24 h): 1.56 ng/mL; % maximum body weight change (day) [2, 6]: −1 (6) %; Remarks (tolerability) [2, 6]: HDT tolerated; Drug-induced deaths (day) [2, 6]: 0/3; % maximum body weight change (day) [2, 7]: +5 (6) %; Remarks (tolerability) [2, 7]: HDT tolerated; Drug-induced deaths (day) [2, 7]: 0/3; tolerability at all doses tested [2]: well tolerated; IC50 (MCF-7 cells): 146 nM
Cc1sc2c(c1C)C(c1ccc(Cl)cc1)=N[C@@H](CC(=O)N1CC3(COC3)C1)c1nnc(C)n1-2 [Example 2, 2-[(S)-4-(4-Chlorophenyl)-2,3,9-trimethyl-6H-thieno[3,2-f][1,2,4]triazolo[4,3-a][1,4]diazepin-6-yl]-1-(2-oxa-6-azaspiro[3.3]hept-6-yl)ethan-1-one]	202	higher unbound exposure	82	64	58	25	0.25	43	98	≥ 200	≥ 100	+5 (6) %	tolerated	0/3	+2 (6) %	tolerated	0/3	−1 (3) %	tolerated	0/3	Plasma concentration ([1]; 1 h): 1366.5 ng/mL; Plasma concentration ([1]; 3 h): 2694.4 ng/mL; Plasma concentration ([1]; 6 h): 1111.0 ng/mL; AUC(0-tlast) ([1]; single oral dose 50 mg/kg): 10; AUC(0-tlast),norm,u ([1]; single oral dose 50 mg/kg): 0.050 kg·h/L; AUC(0-tlast),norm ([1]; single oral dose 50 mg/kg): 0.20 kg·h/L; tlast ([1]; single oral dose 50 mg/kg): 6.0 h; % maximum body weight change (day) [2, 6]: −3 (5) %; Remarks (tolerability) [2, 6]: HDT tolerated; Drug-induced deaths (day) [2, 6]: 0/3; % maximum body weight change (day) [2, 7]: +4 (4) %; Remarks (tolerability) [2, 7]: HDT tolerated; Drug-induced deaths (day) [2, 7]: 0/3; tolerability at all doses tested [2]: well tolerated; IC50 (MCF-7 cells): 116 nM
